Patent publication US20260216180A1, “QUINOLINE DERIVATIVE COMPOUNDS OR PHARMACEUTICALLY ACCEPTABLE SALT THEREOF, PREPARATION METHOD THEREFOR AND USE THEREOF” (JIANGSU CAREPHAR PHARMACEUTICAL CO.,LTD., priority 2023, published 2026)

What was measured:
Type in all cases: cell-based
IL-6 = assay: Macrophage IL-6 secretion after LPS (ELISA); settings: Bone marrow macrophage, compared to 0 μM, mouse bone marrow macrophages, 200 ng/ml LPS, 6 hours, read-out: Inhibition rate of IL-6 at 10 μM concentration
Description: (§1) Pharmacological Activity Test: Regulatory Effect of Quinoline Derivatives on Macrophage IL-6 and TNF-α Secretion
(§2) Mouse bone marrow cells were isolated from the femur and tibia bone marrow of […] mice of 6-8 week old raised under SPF conditions and inoculated in 6-well plates at a density of 1.5*10^6 cells/well/2 mL. 50 ng/mL M-CSF was added to each well and the cells were cultured in a CO2 incubator for 3 days. On the third day, the culture medium was replaced with fresh medium containing 100 ng/mL M-CSF and the culture was continued for 3 days. On the 6th day, the supernatant was removed and the cells were washed once with DPBS. After adding 1 mL of DPBS, the macrophages were harvested using a cell scraper, centrifuged at 400 g for 10 min, and the supernatant was discarded. The cells were resuspended in fresh culture medium containing 50 ng/mL M-CSF, inoculated in a 96-well plate at a density of 2*10^4 cells/well/200 μL, and cultured in a CO2 incubator overnight. 0, 3, 5, […] of the test compound were added to each well (wherein well 0 contains 0.1% DMSO) respectively and incubate in a CO2 incubator for 1 hour. Then 200 ng/ml LPS was added and the cell supernatant was collected after 6 hours of co-culture. ELISA kits were used to detect the secretion levels of IL-6 and TNF-α.

TNF-α = assay: Macrophage TNF-α secretion after LPS (ELISA); settings: Bone marrow macrophage, compared to 0 μM, mouse bone marrow macrophages, 200 ng/ml LPS, 6 hours, read-out: Inhibition rate of TNFα at 10 μM concentration
Description: as §1, §2

miR-124 = assay: Regulation of miR-124 expression in a PBMC in vitro model (qPCR); settings: 5 μM test compound, 24 h, human PBMC stimulated with PHA-L and IL-2; miR-191 internal reference; read-out: Relative expression of miR-124, fold change compared with DMSO-treated cells
Description: Pharmacological Activity Test: Regulation of miR-124 Expression by the Quinoline Derivatives in a PBMC In Vitro Model
• a. human PBMC cells • b. PHA-L • c. IL-2 • d. mirVana™ miRNA Extraction kit • e. TaqMan Advanced miRNA cDNA Synthesis Kit • f. TaqMan Fast Gene Expression Master Mix • g. TaqMan Advanced miRNA Assay (mir191) • h. TaqMan Advanced miRNA Assay (mir124)
Human PBMC cells were resuscitated. The cell suspension was transferred to a 75 cm^2 culture flask containing 13 mL of culture medium. The cells were cultured overnight in a 37° C., 5% CO2 incubator. The cell suspension was then collected in a conical flask, centrifuged at 1200 rpm for 5 minutes, and the supernatant was discarded. The cells were resuspended in 1 mL of fresh culture medium, and then the cell clumps were gently blown apart and inoculated into a 6-well plate at a density of 4*10^6 cells/mL. 5 μg/mL PHA-L and 10 ng/mL IL-2 were added to each well. The cells were incubated in the incubator for 48 hours. 5 μM of the test compound was added to each well of a 6-well plate, and 0.1% DMSO was added to the blank control wells, and the plate was incubated at 37° C. for 24 h. Cells were collected, Total RNA was isolated and extracted according to the procedure of the mirVana™ miRNA Extraction Kit, and cDNA was prepared according to the procedure of the TaqMan Advanced miRNA cDNA Synthesis Kit. MiR-191 was used as the internal reference gene for qPCR test.
That is, RNA sample→poly (A) tailing reaction→adapter reaction→reverse transcription (RT) reaction→miR-amplification reaction→qPCR test.
The qPCR procedure includes: 50° C. 2 min; 95° C. 20 s; 95° C. 1 s, a 60° C. 20 s, 40 cycles.
The relative gene expression was calculated using the following formula: ΔCt=Ct (miR-124)−Ct (miR-191)
Relative miRNA expression=2^−ΔCt.

SMILES	inhibition at 10 µM (IL-6)	inhibition at 10 µM (TNF-α)	fold induction at 5 µM (miR-124)
FC(F)C1(c2ccc(Nc3ccc4cccc(Cl)c4n3)cc2)CC1 [Compound 1, 8-chloro-N-(4-(1-(difluoromethyl)cyclopropyl)phenyl)quinolin-2-amine]	81%	85%	1.5
FC(F)(F)C1(c2ccc(Nc3ccc4cccc(Cl)c4n3)nc2)CC1 [Compound 2, 8-chloro-N-(5-(1-(trifluoromethyl)cyclopropyl)pyridin-2-yl)quinolin-2-amine]			8.35
CC(C)(c1ccc(Nc2ccc3cccc(Cl)c3n2)cc1)C(F)(F)F [Compound 3, 8-chloro-N-(4-(1,1,1-trifluoro-2-methylprop-2-yl)phenyl)quinolin-2-amine]			7.33
FC(F)(F)C1(c2ccc(Nc3ccc4cccc(Cl)c4n3)cc2)CC1 [Compound 4, 8-chloro-N-(4-(1-(trifluoromethyl)cyclopropyl)phenyl)quinolin-2-amine]	85%	84%	15.9
FC(F)(F)C1(c2ccnc(Nc3ccc4cccc(Cl)c4n3)c2)CC1 [Compound 6, 8-chloro-N-(4-(1-(trifluoromethyl)cyclopropyl)pyridin-2-yl)quinolin-2-amine]			7.28
FC(F)(F)C1(c2ccc(Nc3ccc4cccc(Cl)c4n3)cn2)CC1 [Compound 7, 8-chloro-N-(6-(1-(trifluoromethyl)cyclopropyl)pyridine-3-yl)quinolin-2-amine]			1.8
COc1cc(C2(C(F)(F)F)CC2)ccc1Nc1ccc2cccc(Cl)c2n1 [Compound 8, 8-chloro-N-(2-methoxy-4-(1-(trifluoromethyl)cyclopropyl)phenyl)quinolin-2-amine]			6
FC(F)(F)C1(c2cccc(Nc3ccc4cccc(Cl)c4n3)c2)CC1 [Compound 9, 8-chloro-N-(3-(1-(trifluoromethyl)cyclopropyl)phenyl)quinolin-2-amine]			4.24
Fc1cc(Cl)c2nc(Nc3ccc(C4(C(F)(F)F)CC4)cn3)ccc2c1 [Compound 10, 8-chloro-6-fluoro-N-(5-(1-(trifluoromethyl)cyclopropyl)pyridin-2-yl)quinolin-2-amine]			6.9
Cc1cc(Nc2ccc3cccc(Cl)c3n2)ncc1C1(C(F)(F)F)CC1 [Compound 13, 8-chloro-N-(4-methyl-5-(1-(trifluoromethyl)cyclopropyl)pyridin-2-yl)quinolin-2-amine]			5.9
FC(F)(F)C1(c2cnc(Nc3ccc4cccc(Cl)c4n3)cn2)CC1 [Compound 14, 8-chloro-N-(5-(1-(trifluoromethyl)cyclopropyl)Pyrazin-2-yl)quinolin-2-amine]			8.1
Fc1cc(Nc2ccc3cccc(Cl)c3n2)ncc1C1(C(F)(F)F)CC1 [Compound 15, 8-chloro-N-(4-fluoro-5-(1-(trifluoromethyl)cyclopropyl)pyridin-2-yl)quinolin-2-amine]			1.99
Fc1cc(Cl)c2nc(Nc3cc(C4(C(F)(F)F)CC4)ccn3)ccc2c1 [Compound 17, 8-chloro-6-fluoro-N-(4-(1-(trifluoromethyl)cyclopropyl)pyridin-2-yl)quinolin-2-amine]			56.4
N#Cc1cc(Cl)c2nc(Nc3ccc(C4(C(F)(F)F)CC4)cn3)ccc2c1 [Compound 19, 8-chloro-2-((5-(1-(trifluoromethyl)cyclopropyl)pyridin-2-yl)amino)quinolin-6-nitrile]			118
N#Cc1cc(Cl)c2nc(Nc3ccc(C4(C(F)(F)F)CC4)cc3)ccc2c1 [Compound 20, 8-chloro-2-((4-(1-(trifluoromethyl)cyclopropyl)phenyl)amino)quinolin-6-carbonitrile]			15.2
CS(=O)(=O)c1cc(Cl)c2nc(Nc3ccc(C4(C(F)(F)F)CC4)cc3)ccc2c1 [Compound 21]			21.2
CC(C)(c1ccc(Nc2ccc3cccc(Cl)c3n2)cc1)C(F)F [Compound 22, 8-chloro-N-(4-(1,1-difluoro-2-methylpropan-2-yl)phenyl)quinolin-2-amine]			1.96
FC(F)(F)C1(c2cnc(Nc3ccc4cccc(Cl)c4n3)nc2)CC1 [Compound 24, 8-chloro-N-(5-(1-(trifluoromethyl)cyclopropyl)pyrimidin-2-yl)quinolin-2-amine]			1.99
